The source of these data is patent US10894032B2, “Microbial-relief composition” (Curazene, LLC, priority 2014, dated 2021).

In test [1] the test system is mycobacteria marinum. The experiment in a line: Example 7 finger infection of a patient. Particulars: eleven days of antibiotics before the composition. The test is classed as in vivo, human. The method, then: Action against Mycobacteria: A person with four-month long history of an infection on the posterior aspect of their right ring finger was treated. […] After failing two full courses of oral antibiotics, over the previous four months, the patient was given a third round of antibiotics, this time Clarythromycin, after their finger's condition had worsened.

For test [2], the system named is MRSA. Particulars: human, in vivo; cited from earlier work.
For test [3], the system named is Enterococcus. In words: Example 6 infected decubitus ulcer of a patient. Particulars: five days of antibiotic before the composition. The test is classed as in vivo, human.
From the text: Both swabs were sent to the lab and a count of colony-forming units (CFUs) was ordered.
Test [4] relates to MRSA strains. Particulars: averaged over three repeated experiments. The text has this:
(§1) Bacterial strain: Two well characterized strains of methicillin-sensitive Staphylococcus aureus (MSSA) and methicillin-resistant Staphylococcus aureus (MRSA) were used. Specifically, experiments used ATCC 29213 (MSSA) and ATCC 43330 (MRSA), both beta-lactamase positive strains, which represent greater than 90% of the respective strains in the American population.
(§2) Petri dish preparation: A sterile cotton swab (American Scientific Products, McGraw Park, Ill.) was dipped into the cultures and used to swab the entire surface of 150×15 mm Petri dishes containing 75 ml of standard Mueller-Hinton agar. Two Petri dishes were inoculated with ATCC 29213 (MSSA and two Petri dishes with ATCC 43330 (MRSA). One Petri dish of each group (MSSA and MRSA) was set aside as the controls. The other two Petri dishes (MSSA and MRSA) were divided up in quadrants, and each quadrant was labeled B, C, D or E.
(§3) Application: Holding each bottle vertically, the microbiologist added a single drop from each bottle (B, C, D, or E) to the corresponding quadrant of the labeled Petri dish. All four Petri dishes were placed in an incubator overnight at 37 degrees Celsius, and examined 20 hours later. Petri dishes were compared to the corresponding controls, and zones of inhibition were characterized by the largest point of diameter of the circle or oval.

In test [5] the test system is ATCC 29213 (MSSA) and ATCC 43330 (MRSA). The method, then: Testing was conducted at a pathology laboratory certified for microbiology testing by a physician and a microbiologist. A double blind, randomized controlled experiment was conducted to evaluate the SBDS surfactant against bacteria in Petri dishes.
as §1, §2
To evaluate a wider range of surfactant concentrations, cleanser compositions were prepared as follows: A surfactant solution and a stock solution were mixed in various ratios to produce four skin cleanser solutions having four different surfactant concentrations of […], weight-to-weight. The amount of other ingredients in each of the four skin cleanser solutions was less than 1% concentration weight-to-weight.
Cleanser Testing: Four samples of the cleanser with the four different concentrations of the surfactant […] were placed into four separate, unmarked bottles. Each bottle was randomly labeled (B, C, D, or E), and the microbiologist conducting the study was unaware of any difference between the solutions.
as §3

Like-named read-outs stand apart in the source and are kept apart here.

Take `CC[C@H]1OC(=O)[C@H](C)[C@@H](O[C@H]2C[C@@](C)(OC)[C@@H](O)[C@H](C)O2)[C@H](C)[C@@H](O[C@@H]2O[C@H](C)C[C@H](N(C)C)[C@H]2O)[C@](C)(OC)C[C@@H](C)C(=O)[C@H](C)[C@@H](O)[C@]1(C)O` [Clarythromycin]: in test [1], the “change in symptoms on antibiotic” value is recorded as “no change in symptoms”.
Turning to `CN[C@H](CC(C)C)C(=O)N[C@H]1C(=O)N[C@@H](CC(N)=O)C(=O)N[C@H]2C(=O)N[C@H]3C(=O)N[C@H](C(=O)N[C@H](C(=O)O)c4cc(O)cc(O)c4-c4cc3ccc4O)[C@H](O)c3ccc(c(Cl)c3)Oc3cc2cc(c3O[C@@H]2O[C@H](CO)[C@@H](O)[C@H](O)[C@H]2O[C@H]2C[C@](C)(N)[C@H](O)[C@H](C)O2)Oc2ccc(cc2Cl)[C@H]1O` [Vancomycin], the “share of MRSA patients for whom usually effective” value in test [2] is recorded as “about 40%”.
As for `O=C(O)c1cn(C2CC2)c2cc(N3CCNCC3)c(F)cc2c1=O` [ciprofloxacin], the “course of ulcer on antibiotic” value in test [3] is on record as “showed signs of worsening”.
Take “Sodium Dodecylbenzene Sulfonate [surfactant]”: the “Diameter of Zone of Inhibition (mm)” value in test [4] (Surfactant conc. 1.00% (vol. %)) is given as “No Change”; in test [4] (Surfactant conc. 2.30% (vol. %)), 35.3 mm; in test [4] (Surfactant conc. 2.50% (vol. %)), 33.7 mm; in test [4] (Surfactant conc. 2.80% (vol. %)), 32.7 mm; in test [4] (Surfactant conc. 3.30% (vol. %)) it was 37.3 mm; in test [4] (Surfactant conc. 4.00% (vol. %)), 39.3 mm. In addition, the “Diameter of Zone of Inhibition (mm)” value in test [4] (Surfactant conc. 4.90% (vol. %)) stood at 41.7 mm; in test [4] (Surfactant conc. 6.50% (vol. %)) it was 39 mm; in test [4] (Surfactant conc. 9.30% (vol. %)) it was 34 mm; in test [4] (Surfactant conc. 14.80% (vol. %)), 42.3 mm. Further, the difference from controls result in test [5] (surfactant concentration 0.5%, single drop, 20 hours, 37 degrees Celsius) is “no difference between the controls”. The “inhibition of colony forming units (CFUs)” value in test [5] (surfactant concentration 1%) and in test [5] (surfactant concentration 2%) was “approximately 50%” throughout. The “diameter of circle of clear inhibition” value in test [5] (surfactant concentration 8%) is listed as “approximately 40 mm”.
